Patent publication US20240294478A1, “ANTI-CANCER COMPOUNDS AND METHODS OF USE” (YALE UNIVERSITY, priority 2021, published 2024)

Legend:
[1] = test system: genomic DNA isolated from LN229 MGMT−/MMR+ cells; assay: Genomic DNA denaturing gel electrophoresis; type: cell-based, human; settings: KL-50 200 μM
Experimental: Genomic DNA Denaturing Gel Electrophoresis. Cells were trypsinized, washed with 1×PBS, and stored at −80° C. prior to processing. Genomic DNA was extracted with the DNeasy Blood & Tissue Kit (Qiagen) per kit protocol. A 0.7% agarose gel was prepared in 100 mM NaCl-2 mM EDTA (pH 8) and soaked in 40 mM NaOH-1 mM EDTA running buffer for 2 h. Genomic DNA (400 ng/well) was then loaded in 1×BlueJuice loading buffer (Invitrogen) and subjected to electrophoresis at 2 V/cm for 30 min, followed by 3 V/cm for 2 h. The gel was neutralized in 150 mM NaCl-100 mM Tris (pH 7.4) for 30 min, twice, and then stained with 1×SYBR Gold in 150 mM NaCl-100 mM Tris (pH 7.4) for 90 min. Imaging was performed on a ChemiDoc XRS+ Molecular Imager (Bio-Rad).

[2] = test system: LN229 MGMT+/−, MMR+/− cells; assay: Micronuclei analysis; type: cell-based, human; settings: 20 μM, 48 h
Text: FIGS. 8A-8K. (FIG. 8A) Change in percent cells with 1 micronuclei from baseline (DMSO control) after treatment as in FIGS. 5A and 5C. Columns, mean; error bars, SD; n>15 technical replicates; **** p<0.0001; ns, not significant. (FIG. 8B) Short-term viability assay curves for KL-50 in PD20 cells, deficient in FANCD2 (FANCD2−/−) or complemented with FANCD2 (+FANCD2). (FIG. 8C) Short-term viability assay curves for KL-50 in PEO4 (BRCA2+) and PEO1 (BRCA2−/−) cells pre-treated with 0.01% DMSO control or 10 μM O^6BG (+O^6BG) for 1 h prior to KL-50 addition. (FIG. 8D) Short-term viability assay curves for KL-50 in DLD1 BRCA2+/− and BRCA2−/−cells pre-treated with 0.01% DMSO control or 10 μM O^6BG (+O^6BG) for 1 h prior to KL-50 addition. For FIGS. 8B-8D, points, mean; error bars, SD; n=3 technical replicates. […] (FIG. 8E) Validation of micronuclei identification using olaparib as positive control. […] The % FANCD2 ubiquitination (% FANCD2 Ub) is quantified as the background-corrected integrated band intensity of the upper band divided by the sum of the background-corrected integrated band intensities of the upper and lower bands. […]
Micronuclei Analysis. An automated image analysis pipeline was developed by YCMD using InCell Analyzer software to quantify micronuclei formation. […]

[3] = test system: LN229 MGMT−/MMR+ flank tumors; assay: Murine flank tumor model, LN229 MGMT-/MMR+; type: in vivo, mouse; settings: 5 mg/kg MWF x 3 weeks, P.O.
Text: FIGS. 9A-91: KL-50 is safe and efficacious on both MGMT−/MMR+ and MGMT−/MMR-flank tumors over a wide range of treatment regimens and conditions. […] (FIG. 9C) Mean body weight of mice during LN229 flank tumor experiments. (FIG. 9D) Kaplan-Meier analysis of LN229 MGMT−/MMR− xenograft flank tumor-bearing mice to determine survival rate based on death, removal from study if mouse body weight loss exceeded 20% of initial body weight, or if tumor volume exceeded 2000 mm^3. […] (FIGS. 9H-91) Xenograft LN229 MGMT−/MMR+ and LN229 MGMT−/MSH6—flank tumors with a larger average starting tumor size of −400 mm^3 and −350 mm^3 respectively, treated with 3 weekly cycles of P.O administration of 10% cyclodextrin (n=4) or KL-50 (n=4, 3 cycles of 25 mg/kg on Monday, Wednesday, and Friday). The study period was limited by control groups which had to be euthanized for exceeding the ethical maximum allowed tumor size, thus ending the study. In all panels, points, mean; error bars, SEM; *, P<0.05; **, P<0.01; ***, P<0.001; ****, P<0.0001; ns, not significant.
Mouse Protocols for Flank Studies. A mouse tumor model was established by subcutaneously implanting human LN229 (MGMT−/MMR+) or LN229 (MGMT−/MMR−) cells. […] During the final centrifugation, viability was determined using trypan blue exclusion. […]

SMILES	crosslinked genomic DNA (ICL induction) [1]	micronuclei formation ([2]; greatest in MGMT−/MMR− cells)	tumor growth, MGMT−/MMR+ flank tumors [3]	foci induction or micronuclei formation in MGMT−/MMR− cells [2]
NC(=O)c1ncn2c(=O)n(CCF)nnc12 [KL-50]	presence of crosslinked DNA	significant increase in micronuclei	statistically non-inferior to TMZ	–
Cn1nnc2c(C(N)=O)ncn2c1=O [TMZ, 4-methyl-5-oxo-2,3,4,6,8-pentazabicyclo[4.3.0]nona-2,7,9-triene-9-carboxamide, reference compound]	no evidence of ICL induction	–	suppressed tumor growth	not observed
